For assay [1], the system named is Actinomyces viscosus (A. v) ATCC 27044. Description: MIC by broth micro-dilution against Actinomyces viscosus. It is filed as cell-based. The conditions noted are these: 37 °C, 18-24 h, no unit in table, dilution series 250-0.12 mg/L (ceiling 250 ppm). The protocol: A single colony was picked from the Trypticase Digested Soybean peptone agar blood plate (TSA5B) of ordinarily stored bacteria species and used to inoculate corresponding broth culture medium, which was cultivated in a microaerobic environment (P.g needs anaerobic cultivation) with 95% air, 5% CO2 at 37.0° C.±1.0° C., […] Then corresponding broth cultivate medium was used to adjust the turbidity of the bacteria suspension to 0.5^# McFarland standard, equivalent to 1.0×10^8 CFU/mL.
(§1) The operating steps were:
(§2) a. Preparation of the stock solution of antibacterial pharmaceutical: 1% stock solution of various antibacterial pharmaceuticals was prepared with 100% pure ethanol as solvent. The prepared stock solution was filtered to eliminate bacteria, and was distributed into small portions to be used.
(§3) b. Range of measured concentration: the present experiment used 250 ppm as the ceiling measured concentration of the anti-bacterial pharmaceutical.
(§4) c. Measuring method: micro-dilution method. […]
(§5) The bacteria to be tested and standard bacteria were prepared as above. […] 0.12 mg/L, and the final inoculation quantity was about […] or 5×10^6 bacteria in each well. […]

For assay [2], the system named is Streptococcus mutans (S. m) ATCC 25175. Briefly: MIC by broth micro-dilution against Streptococcus mutans. The conditions noted are these: 37 °C, 18-24 h, no unit in table, dilution series 250-0.12 mg/L (ceiling 250 ppm). The assay is classed as cell-based. The method, then:
(§6) A single colony was picked from the Trypticase Digested Soybean peptone agar blood plate (TSA5B) of ordinarily stored bacteria species and used to inoculate corresponding broth culture medium, which was cultivated in a microaerobic environment (P.g needs anaerobic cultivation) with 95% air, 5% CO2 at 37.0° C.±1.0° C., wherein S.m was cultivated for 18-24 h, and the remaining two species were cultivated for 40-48 h. Then corresponding broth cultivate medium was used to adjust the turbidity of the bacteria suspension to 0.5^# McFarland standard, equivalent to 1.0×10^8 CFU/mL.
as §1, §2, §3, §4, §5

Assay [3] relates to Porphyromonas gingivalis (P. g) ATCC 33277. Description: MIC by broth micro-dilution against Porphyromonas gingivalis. The assay is classed as cell-based. The conditions noted are these: anaerobic, 37 °C, 18-24 h, no unit in table, dilution series 250-0.12 mg/L (ceiling 250 ppm). The protocol: as §6, §1, §2, §3, §4, §5
In assay [4] the test system is GM-CSF. Description: LUMINEX analysis of GM-CSF in KB cell supernatant. It is filed as cell-based, human. The conditions noted are these: concentration not given. The method, then: (§7) Anti-inflammatory activity was assessed using the KB cell (the epidermis cancer cell in human oral cavity). During the experiment, the KB cell inoculated in the cultivating plate was treated with or without positive control or compound 5-hydroxymorusin. After the treatment, the supernatant of the cultivating medium was collected and stored in −80° C. refrigerators. Inflammation was assessed by measuring several inflammation markers: Prostaglandin E2 (PGE2) in the supernatant was detected by Enzyme-linked immunsorbent assay, and LUMINEX™ multifunctional liquid-phase chip analysis system was used for the detection of granulocyte monocyte colony stimulating factor (GM-CSF), tumor necrosis factor-alpha (TNF-α), and interleukins 1-beta and 6 (IL-1β and IL-6).
(§8) LUMINEX™ multifunctional liquid-phase chip analyses of GM-CSF, TNF-α, IL-1 and IL-6: The 96-well plate was enclosed with enclosing liquid for 30 minutes. Fluorescent microspheres were added into the 96-well plate after dilution. The standard and the samples to be measured were added, and incubated overnight at 4° C. The next day, the supernatant was discarded and 50 μL GM-CSF, TNF-α, IL-1β and IL-6 antibodies were added to each well. After being rinsed for 4 times, the 96-well plate was placed in a shaking table, which was in ambient temperature, to keep the plate away from light for 1 hour. […]

The test system of assay [5] is IL-1β. Briefly: LUMINEX analysis of IL-1β in KB cell supernatant. The assay is classed as cell-based, human. The conditions noted are these: concentration not given. The method, then:
as §7, §8

Assay [6] deals with IL-6. Briefly: LUMINEX analysis of IL-6 in KB cell supernatant. The assay is classed as cell-based, human. The conditions noted are these: concentration not given. The protocol:
as §7, §8

In assay [7] the test system is TNF-α. Briefly: LUMINEX analysis of TNF-α in KB cell supernatant. The assay is classed as cell-based, human. The conditions noted are these: concentration not given. The method, then: as §7, §8

Consider `Oc1cc(Cl)ccc1Oc1ccc(Cl)cc1Cl` [Triclosan], for which the “minimum inhibitive concentration (MIC), A. v ATCC 27044” value in assay [1] is 3.9. Besides, the “minimum inhibitive concentration (MIC), S. m ATCC 25175” value in assay [2] was found to be 3.9. Further, the “minimum inhibitive concentration (MIC), P. g ATCC 33277” value in assay [3] is 7.8. Further, the “anti-inflammatory effect, GM-CSF (the larger the value, the stronger the anti-inflammatory ability)” value in assay [4] is 5%. Also, the “anti-inflammatory effect, IL-1β (the larger the value, the stronger the anti-inflammatory ability)” value in assay [5] is 7%. Further, the “anti-inflammatory effect, IL-6 (the larger the value, the stronger the anti-inflammatory ability)” value in assay [6] is 31%. Further, the “anti-inflammatory effect, TNF-α (the larger the value, the stronger the anti-inflammatory ability)” value in assay [7] was 81%.
